Source: patent US10463753B2, “Radiolabeled monoacylglycerol lipase occupancy probe” (LUNDBECK LA JOLLA RESEARCH CENTER, INC., priority 2016, dated 2019)

How the values were obtained:
[1] = Whole-body biodistribution and radiation dosimetry by PET imaging; assay type: in vivo, rhesus monkey
Experimental: The average PET image over the total acquisition duration (˜240 min) of a female rhesus is shown in FIG. 6 (abbreviations: CT=computerized tomography; gb=gallbladder; HU=Hounsfield units; PET=positron emission tomography; SUV=standardized uptake value; ub=urinary bladder; VOI=volume of interest) at three different levels through the body. […] The volumes of interest (VOIs) drawn over the organs identified as sources for the radiation dosimetry calculation can be seen on both average PET and its associated computed tomography (CT) image. […] Selected organs are labeled in the figure. The non-decay corrected (used for the dosimetry calculation) and decay corrected time activity curves of the 11 source organs are shown in FIG. 8 for both the female and male rhesus monkey. The curve values are expressed as percent of injected activity. The total absorbed doses in various target organs generated by OLINDA|EXM 1.1 software are presented in Table 4 for both adult male and adult female models in units of millisievert per megabecquerel (mSv/MBq) and roentgen equivalent man per millicurie (rem/mCi). Kidneys received the highest radiation dose in both the male and female rhesus. The effective dose equivalent (with ICRP-26 tissue weighting factors) and effective dose (with ICRP-60 tissue weighting factors) calculated for the whole body are also listed in Table 4.

[2] = Free fraction of parent compound in plasma by ultrafiltration; assay type: in vitro ADME; details: human plasma, n=10; read-out: Free fraction of parent compound in plasma (not protein bound)
Experimental: (§1) Blood samples were analyzed by HPLC to determine the fraction of intact parent compound at each time point. […] Free fraction of parent compound in plasma (not protein bound) was also measured by ultrafiltration and estimated to be 0.36±0.04% (n=10).

[3] = In vitro plasma protein binding by ultrafiltration; assay type: in vitro ADME; details: rhesus monkey, read-out: Plasma free fraction (not protein bound)
[4] = arterial plasma
[5] = Phase 0 study: parent fraction in blood/plasma by HPLC; assay type: in vivo; details: human blood
Experimental: (§2) An additional cohort of four healthy volunteers (two male, two female) was recruited for a whole body biodistribution cohort in which they underwent a single Compound 8F PET scan.
as §1

[6] = Phase 0 whole-body biodistribution and radiation dosimetry by PET; assay type: in vivo, human
Experimental: as §2
Elimination via the urinary route was very low.
The following organs were identified as source organs: brain, heart, liver, gallbladder, intestines, kidneys, and urinary bladder. […] The average whole body effective dose (ED) was determined to be 2.19E-02±2.83E-04 mSv/MBq (8.10E-02±1.05E-03 rem/mCi) for adult female and 1.85E-02±7.07E-04 mSv/MBq (6.85E-02±2.62E-03 rem/mCi) for adult male, where the critical organ was determined to be the liver. Stated differently, average whole body ED for females=21.9 μSv/MBq, and for males=18.5 μSv/MBq (average for male and female=20.2 μSv/MBq).

[7] = whole-body biodistribution cohort

In the case of `O=C(OC(C(F)(F)F)C(F)(F)F)N1CCN(Cc2ccc(Cl)cc2N2CCN(CC[18F])CC2)CC1` [Compound 8F, [^18F]1,1,1,3,3,3-hexafluoropropan-2-yl 4-(4-chloro-2-(4-(2-fluoroethyl)piperazin-1-yl)benzyl)piperazine-1-carboxylate], the “Organ receiving the highest radiation dose” value ([1]; both male and female rhesus) is reported as “Kidneys”, the “Organs with the highest uptake” value ([1]; i.v. bolus, whole-body PET) is reported as “liver, heart wall, lungs, kidney and brain” and the fraction unbound [2] is reported as 0.0036 ± 0.0004. For the same compound, the fraction unbound ([3]; first study) was 0.047 ± 0.006, the fraction unbound ([3]; second study) was 0.008 ± 0.0004 and the Plasma level ([4]; by ~10 min post-dose) was ≤ 0.01 % of the injected dose. For the same compound, the Peak plasma concentration ([4]; single i.v. 2.25-4.99 mCi) was ~0.04 % of the injected dose, the “Time of peak plasma concentration post-dose” value ([4]; single i.v. dose) was about 5 min and the “Stability in blood ex vivo” value [5] was “stable”. The “Average whole body ED” value ([6]; average for male and female) was 20.2 μSv/MBq, the “Average whole body ED” value ([6]; females) was 21.9 μSv/MBq and the “Average whole body ED” value ([6]; males) was 18.5 μSv/MBq. For the same compound, the “Elimination via the urinary route” value [6, 7] was “very low”, the “Maximum injected dose (ID) in the intestine” value [6, 7] was 6-7 % ID and the “Maximum injected dose (ID) in the liver” value [6, 7] was 26-28 % injected dose (ID). The “Organ with highest radiation absorbed dose (critical organ)” value [6, 7] was “liver” and the “Route of elimination of the radiotracer” value [6, 7] was “primarily via hepatobiliary route”.
